According to patent EP1541694A1, “Methods of identifying, selecting and/or characterizing compounds which modulate the activity of a Src family kinase” (Sirenade Pharmaceuticals AG, priority 2003, dated 2005):

Assays:
[1] = system: Src family kinases when they carry the respective TQ mutations; details: cited from earlier work
[2] = system: Src-YF expressing ZM77 cell lines; assay: Suppression of tet-induced phenotype changes (cell scattering) in suspension, Ultra Low Attachment plates; assay type: cell-based, human; details: Ultralow Attachment Plates
Experimental: (§1) Cells were seeded into 24-well or 96-well "Ultra Low Attachment" plates (cat.no.: 3473, Costar Corning Corp., Acton, MA, USA). These plates are coated with a covalently bound hydrogel layer that prevents cellular attachment to the polystyrene surface of the wells. As the cells were not attached to these wells, a medium change was impossible here. However, the phenotypes were tested in full serum-containing medium in the absence or presence of EGF, PDGF-BB or HGF as detailed above. Tet-induction was also started the day after seeding.
(§2) Largely irrespective of the cell numbers per well, the cells of all cell lines were in suspension and formed one or few very condensed/compact, opaque, rod-, disc- or kidney-shaped aggregates with a smooth surface, in which individual cells could not be discerned. Phenotype changes became apparent ~24 h after tet induction in ZM77 and ZM170 cell lines only, and Δpt(-tet →+tet)max was reached after ~2 days. In these cell lines Src-YF or Src-TQ/YF expression, respectively, induces scattering of the cells. Many cells are floating in the medium individually or in small clusters and the remaining large aggregate(s) are irregular-shaped and rather loose than compact; individual cells can easily be discerned and thus, the surfaces of these aggregates are rough as with bunches of grapes (Fig.14a,b). This biological response was readily observed with or without any of the above growth factors, wherefore normal growth medium without any additional growth factor was subsequently used in this assay type.
(§3) To that end, the test compounds PP1-Chr., SU6656 and PP2 were individually added to the cells together with tet, and the development of the phenotype changes in the presence of these compounds was monitored subsequently in direct comparison with tet-induced cells that received no compound (Fig.14c-j). The compounds were also added to the cells without tet-induction of Src/ Src mutant expression as controls for non-specific/ toxicity effects. The experiments were performed with several ZM77 cell lines.

[3] = system: Src-TQ/YF expressing cell line ZM170.21; assay: as above; assay type: cell-based, human; details: ZM170.21 (Src-TQ/YF) in suspension, Ultralow Attachment Plates
Experimental: as §1, §2, §3

[4] = system: cell line ZM76.3 (Src-KA); assay: CTB cell viability assay, suppression of tet-induced reduction; assay type: cell-based, human; details: ZM76.3, CTB assay
From the text: To proof the concept of the assay platform according to the invention in a quantitative manner with a highly parallel readout, the following cell viability / metabolic activity assays from Promega according to the manufacturer's protocols: "CellTiter 96 AQueous One Solution Cell Proliferation Assay (MTS)", CellTiter-BlueTM Cell Viability Assay (CTB), and the ATP-status assay "CellTiter-Glo Luminescent Cell Viability Assay" (ATP) were used to obtain quantitative values reflecting (aspects of) the phenotype changes. The cells were seeded into white-walled/ clear bottom 96-well plates ["MICROTEST" by Falcon, cat.no. […] Measurements were taken 1,2 and 3 days later using the Wallac Victor^2TM multilabel plate reader (Perkin Elmer). Absorbance was measured at 490nm (MTS). Luminescence mode was used for the ATP assay. For CTB fluorescence excitation wavelength was 550nm (filter: 550(20)nm), emission wavelength was 590 nm (filter: 590(20)nm). […] The cell viability/ metabolic activity upon tet-induction in relation to the cell viability/ metabolic activity without tet ("+/tet(means") is calculated from the quotient of the means of the measured cell viability/ metabolic activity signals from i) cells incubated without tet and ii) cells incubated with tet. […] It is calculated as toxicity=1-mean(-tet, compound)/mean(-tet,(DMSO)). […]

[5] = system: Src-YF expressing cell line ZM77.8; assay: CTB and ATP cell viability/metabolic activity assays, suppression of tet-induced reduction; assay type: cell-based, human; details: ZM77.8 (Src-YF), 5µM PP2 + 10µM PP1-Chr., 40µM D5, 1µM 17-AAG, 1µM radicicol
From the text: (§4) To proof the concept of the assay platform according to the invention in a quantitative manner with a highly parallel readout, the following cell viability / metabolic activity assays from Promega according to the manufacturer's protocols: "CellTiter 96 AQueous One Solution Cell Proliferation Assay (MTS)", CellTiter-BlueTM Cell Viability Assay (CTB), and the ATP-status assay "CellTiter-Glo Luminescent Cell Viability Assay" (ATP) were used to obtain quantitative values reflecting (aspects of) the phenotype changes. The cells were seeded into white-walled/ clear bottom 96-well plates ["MICROTEST" by Falcon, cat.no. 353947] for MTS and ATP assays and in black-walled/ clear bottom 96-well plates ["MICROTEST" by Falcon, cat.no. 353948] for the CTB assay at the appropriate densities. Tet and/or compound addition (where applicable) was started the next day. Measurements were taken 1,2 and 3 days later using the Wallac Victor^2TM multilabel plate reader (Perkin Elmer). Absorbance was measured at 490nm (MTS). Luminescence mode was used for the ATP assay. For CTB fluorescence excitation wavelength was 550nm (filter: 550(20)nm), emission wavelength was 590 nm (filter: 590(20)nm). Indicated are the means of sixplicate determinations (from 6 independent wells) in the absence of tet (mean(-tet)) and in the presence of tet (mean(+tet)), followed by the respective corresponding standard deviations SD(-tet) and SD(+tet). The cell viability/ metabolic activity upon tet-induction in relation to the cell viability/ metabolic activity without tet ("+/tet(means") is calculated from the quotient of the means of the measured cell viability/ metabolic activity signals from i) cells incubated without tet and ii) cells incubated with tet. […] Furthermore indicated are the corresponding Z' values. In the present context: Z'=1-(3(SD(+tet)+SD(-tet))/ |mean(+tet)-mean(-tet)|. […] SD=0) (Zhang et al., 1999). Z'≥0 is required for an assay useful for a screening approach; a Z'≥0.5 is considered excellent for an assay with regard to high throughput screening. […] Three more parameters reflecting the effects of compounds on cell viability/metabolic activity in these assays are indicated in Tab.3 and Tab.4: Toxicity reflects the nonspecific (i.e. irrespective of tet-induced Src/ Src mutant expression) effects of a compound on the viability/ metabolic activity of the cells. It is calculated as toxicity=1-mean(-tet, compound)/mean(-tet,(DMSO)). […] The suppression value quantifies the potency of a compound with respect to suppression of the tet-induced change in cell viability / metabolic activity. Usually, tet-induction reduces cell viability / metabolic activity due to Src activity and addition of a Src inhibitory compound mitigates this reduction. A suppression of 100% means that the compound totally suppresses the tet-induced decrease in cell viability / metabolic activity (as in the absence of tet). The following formula is employed: Suppres-sion=([…]). Finally, the corresponding Z' value is calculated as follows: Z'(suppression)=1- 3([…]). The factor Qtox corrects the means and SD determined in the absence of a compound for the (nonspecific) toxicity effect of the respective compound, which would otherwise overlay and obscure the specific suppression, if toxicity is not neglectable. […] On each day 4 measurements are taken (1, 2, 3 and 4 h after the addition of the CTB assay reagents). […]

[6] = system: Src-TQ/YF expressing cell line ZM170.21; assay: as above; assay type: cell-based, human; details: ZM170.21 (Src-TQ/YF), 5µM PP2 + 10µM PP1-Chr., 40µM D5, 1µM 17-AAG, 1µM radicicol
From the text: as §4

[7] = system: Src-YF expressing ZM77 cell lines; assay: Suppression of tet-induced phenotype changes, evaluated by eye/microscope, normal cell culture plates; assay type: cell-based, human; details: adherent, serum-containing medium
Experimental: Phenotype changes -tet → +tet were evaluated in 24-well plates (Nunc; cat.no. 143982) under the following several different growth conditions to identify the strongest possible response (Δpt(-tet→+tet)max) 1. full (10% serum containing) growth medium a) without any growth factor supplement (-), b) with epidermal growth factor (EGF; 100ng/ml) (cat.no. 115, Research Diagnostics Inc. (RDI), Flanders, NJ, USA) or c) platelet derived growth factor type BB (PDGF-BB; 30ng/ml) (cat.no. 114b, RDI) or d) hepatocyte growth factor (HGF; 20ng/ml) (RDI, cat.no.300-010), or 2. serum-free medium a) - or b) +EGF or c) +PDGF or d) +HGF. In all cases, cells were first seeded into standard 24-well or 96-well plates (Nunc) in full growth medium. The cell number seeded per well was also varied to identify the most suitable cell densities producing Δpt(-tet→+tet)max. […]
To that end, the test compounds PP1-Chr., PP2 (cat.no. 529573, Calbiochem) and SU6656 (cat.no. 572635, Calbiochem) (see Fig.9p for chemical structures) were individually added to the cells together with tet, and the development of the phenotype changes in the presence of these compounds was monitored subsequently in direct comparison with cells that received no compound or only vehicle (0.2% DMSO) together with tet induction. […]

[8] = system: Abl-TQ; details: cited from earlier work

Compound	suppression of tet-induced phenotype changes (cell scattering) [2]	suppression of tet-induced phenotype (cell scattering) [3]	suppression of the tet-induced reductions of the cell viability/ metabolic activity (+/-tet(means)-values) [5]	suppression of the +/-tet(means)-values [6]	further results
Cc1ccc(-c2nn(C(C)(C)C)c3ncnc(N)c23)cc1 [PP1]					inhibition of Src family kinases carrying the TQ mutations [1]: do not inhibit
C[C@@H]1C[C@H]2O[C@@H]2/C=C\C=C\C(=O)Cc2c(Cl)c(O)cc(O)c2C(=O)O1 [Radicicol, radicicol]	suppress to a large extent	suppress to a large extent	equally effective	equally effective	suppression of the Src-KA-induced phenotype [4]: effectively suppressing
CN(C)S(=O)(=O)c1ccc2c(c1)/C(=C/c1cc3c([nH]1)CCCC3)C(=O)N2 [SU6656]	partially suppressed				suppression of tet-induced phenotype changes [7]: partially suppressed
C=CCNC1=C2C[C@@H](C)C[C@H](OC)[C@H](O)[C@@H](C)/C=C(\C)[C@H](OC(N)=O)[C@@H](OC)/C=C\C=C(/C)C(=O)NC(=CC1=O)C2=O [17-AAG]	suppress to a large extent	suppress to a large extent	equally effective	equally effective	
Cc1ccc(NC(=O)c2ccc(CN3CCN(C)CC3)cc2)cc1Nc1nccc(-c2cccnc2)n1 [Gleevec®]					inhibition of Abl-TQ [8]: does not inhibit
